In ChEMBL document CHEMBL1132242, “Stereoselective characterization of the 1,4-dihydropyridine binding site at L-type calcium channels in the resting state and the opened/inactivated state” (J Med Chem, 1999):
Several values for one entry are separate records, joined by “and”; a condition that tells them apart may be missing. Equal values may be shown once.

Legend:
[1] = target: T1, Voltage-gated L-type calcium channel (Homo sapiens, UniProt Q13936+Q13698+Q01668+O60840); test: Evaluated for the free energies of binding (delta G) (in the resting state (rs) of voltage-gated L-type [Ca2+] channel (VGCCs)); format: protein assay
[2] = target: T1, Voltage-gated L-type calcium channel; test: Free energy of binding (delta G) for inactivated state (is) of voltage-gated L-type [Ca2+] channel(VGCCs); format: protein assay
[3] = target: T1, Voltage-gated L-type calcium channel; test: Difference in free energies of binding (delta G) in the Resting state (rs) and inactivated state (is) of voltage-gated L-type [Ca2+] channel(VGCCs); format: protein assay
[4] = target: T1, Voltage-gated L-type calcium channel; test: Free energies of binding(delta G)in inactivated state (is) of voltage-gated L-type [Ca2+] channel(VGCCs); format: protein assay
[5] = target: T1, Voltage-gated L-type calcium channel; test: Free energies of binding (delta G) in the Resting state (rs) of voltage-gated L-type [Ca2+] channel(VGCCs); format: protein assay

Delta Gsolv	Binding energy [1]	Binding energy [2]	Binding energy [3]	Binding energy [4]	SMILES	Binding energy [5]
-9.2 kcal/mol	-8.209 kcal/M	-8.964 kcal/M			COC(=O)C1=C(C)N=C(C)/C(=C(\O)OC)C1c1ccc(Cl)cc1 (stereo in doubt; form 1)	
-8.706 kcal/mol and -9.458 kcal/mol	-8.58 kcal/M and -10.707 kcal/M	-10.387 kcal/M			COC(=O)C1=C(C)NC(C)=C(C(=O)OC)C1c1ccccc1	
-9.442 kcal/mol	-14.145 kcal/M				COC(=O)C1=C(C)N=C(C)/C(=C(\O)OC)C1c1c(F)c(F)c(F)c(F)c1F (stereo not drawn)	
-10.096 kcal/mol	-7.86 kcal/M	-8.28 kcal/M			CC1=CC(c2ccccc2OC(F)F)C([N+](=O)[O-])=C(C)N1 (stereo in doubt; form 2)	
-14.543 kcal/mol	-9.26 kcal/M	-10.564 kcal/M			CO/C(O)=C1\C(C)=NC(C)=C([N+](=O)[O-])C1c1ccccc1OC(F)F (stereo not drawn)	
-9.756 kcal/mol	-7.819 kcal/M	-8.461 kcal/M			COC(=O)C1=C(C)N=C(C)/C(=C(\O)OC)C1c1cccc(OC)c1 (stereo in doubt; form 2)	
-11.269 kcal/mol	-7.422 kcal/M	-7.783 kcal/M			CC1=CC(c2ccccc2OC(F)F)C([N+](=O)[O-])=C(C)N1 (stereo in doubt; form 1)	
-9.56 kcal/mol	-11.58 kcal/M				COC(=O)C1=C(C)N=C(C)/C(=C(\O)OC)C1c1cccc(F)c1 (stereo not drawn)	
-9.18 kcal/mol	-14.731 kcal/M				COC(=O)C1=C(C)N=C(C)/C(=C(\O)OC)C1c1ccccc1I (stereo not drawn)	
-10.313 kcal/mol	-6.967 kcal/M		-0.66 kcal/M	-7.634 kcal/M	CC1=CC(c2ccccc2C(F)(F)F)C([N+](=O)[O-])=C(C)N1 (stereo in doubt; form 1)	
-8.94 kcal/mol	-12.685 kcal/M				COC(=O)C1=C(C)N=C(C)/C(=C(/O)OC)C1c1cccc(Cl)c1 (stereo not drawn)	
-14.15 kcal/mol	-9.7 kcal/M	-10.641 kcal/M	-0.94 kcal/M		COC(=O)C1=C(C)NC(C)=C([N+](=O)[O-])C1c1ccccc1C(F)(F)F (stereo in doubt; form 2)	
-9.256 kcal/mol	-14.308 kcal/M				COC(=O)C1=C(C)N=C(C)/C(=C(\O)OC)C1c1ccccc1Br (stereo not drawn)	
-9.26 kcal/mol	-13.34 kcal/M				COC(=O)C1=C(C)N=C(C)/C(=C(\O)OC)C1c1ccccc1Cl (stereo not drawn)	
-9.847 kcal/mol	-9.916 kcal/M				COC(=O)C1=C(C)N=C(C)/C(=C(\O)OC)C1c1cccc(OC)c1 (stereo in doubt; form 1)	
-17.275 kcal/mol	-8.256 kcal/M	-9.11 kcal/M	-0.85 kcal/M		CC1=C([N+](=O)[O-])C(c2ccccc2C(F)(F)F)C([N+](=O)[O-])=C(C)N1	
-7.993 kcal/mol	-11.88 kcal/M				COC(=O)C1=C(C)N=C(C)/C(=C(\O)OC)C1c1ccccc1C (stereo not drawn)	
-9.74 kcal/mol	-12.522 kcal/M				COC(=O)C1=C(C)N=C(C)/C(=C(\O)OC)C1c1ccccc1C#N (stereo not drawn)	
-8.79 kcal/mol	-7.666 kcal/M				COC(=O)C1=C(C)N=C(C)/C(=C(\O)OC)C1c1ccc(Cl)cc1 (stereo in doubt; form 2)	
-9.804 kcal/mol	-11.512 kcal/M				COC(=O)C1=C(C)N=C(C)/C(=C(\O)OC)C1c1ccccc1F (stereo not drawn)	
-10.468 kcal/mol	-10.735 kcal/M				COC(=O)C1=C(C)N=C(C)/C(=C(\O)OC)C1c1ccccc1OC (stereo not drawn)	
-13.929 kcal/mol	-8.8 kcal/M	-10.296 kcal/M	-1.5 kcal/M		COC(=O)C1=C(C)NC(C)=C([N+](=O)[O-])C1c1ccccc1C(F)(F)F (stereo in doubt; form 1)	
-10.65 kcal/mol	-11.84 kcal/M				COC(=O)C1=C(C)N=C(C)/C(=C(\O)OC)C1c1cccc(C#N)c1 (stereo in doubt; form 2)	
-8.19 kcal/mol	-9.79 kcal/M				COC(=O)C1=C(C)N=C(C)/C(=C(\O)OC)C1c1ccc(C)cc1 (stereo not drawn)	
-14.696 kcal/mol	-9.571 kcal/M	-10.474 kcal/M			COC(=O)C1=C(C)NC(C)=C([N+](=O)[O-])C1c1ccccc1OC(F)F (stereo not drawn)	
-16.994 kcal/mol	-7.82 kcal/M	-8.66 kcal/M			CC1=C([N+](=O)[O-])C(c2ccccc2OC(F)F)C([N+](=O)[O-])=C(C)N1	
-8.407 kcal/mol	-9.93 kcal/M				COC(=O)C1=C(C)N=C(C)/C(=C(\O)OC)C1c1cccc(C)c1 (stereo not drawn)	
-10.33 kcal/mol	-7.36 kcal/mol	-7.74 kcal/M	-0.38 kcal/M		CC1=CC(c2ccccc2C(F)(F)F)C([N+](=O)[O-])=C(C)N1 (stereo in doubt; form 2)	
-10.743 kcal/mol	-9.71 kcal/M	-12.108 kcal/M			COC(=O)C1=C(C)N=C(C)/C(=C(\O)OC)C1c1cccc(C#N)c1 (stereo in doubt; form 1)	
-9.427 kcal/mol	-10.175 kcal/M				COC(=O)C1=C(C)N=C(C)/C(=C(\O)OC)C1c1ccc(F)cc1 (stereo not drawn)	

SMILES	Delta Gsolv	Binding energy [1]	Binding energy [2]	Binding energy [3]	Binding energy [4]	Binding energy [5]
COC(=O)C1=C(C)NC(C)=C(C(=O)OC)C1c1ccccc1[N+](=O)[O-] [NIFEDIPINE]	-14.117 kcal/mol and -14.198 kcal/mol	-12.385 kcal/M	-13.184 kcal/M			-10.502 kcal/M
